Measurements published in ChEMBL document CHEMBL1201862, “PubChem BioAssay data set” (2004).
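1) Cells in 96-well plates. 2) Compound, 48 h, 5 concentrations. 3) Linear interpolation between surrounding doses. 4) Unreached endpoint = highest concentration. GI50 is the concentration that inhibits growth by half.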 Calls of active or inactive are those of the source. No stated cut-off is given here; in the data, active = GI50 up to about 1.1 µM and inactive = higher.

Assays:
Test in all cases: NCI-60 cell line screen, 48 h
NCI-H23 = tested on: NCI-H23
KM-20L2 = tested on: KM-20L2
OVCAR-8 = tested on: OVCAR-8
KM12 = tested on: KM12
COLO 205 = tested on: COLO 205
SNB-19 = tested on: SNB-19
HCT-15 = tested on: HCT-15
K562 = tested on: K562
RPMI-8226 = tested on: RPMI-8226
CCRF-CEM = tested on: CCRF-CEM
HT-29 = tested on: HT-29
M19-MEL = tested on: M19-MEL
U-251 = tested on: U-251
SK-MEL-28 = tested on: SK-MEL-28
OVCAR-5 = tested on: OVCAR-5
UACC-257 = tested on: UACC-257
MCF7 = tested on: MCF7
ACHN = tested on: ACHN
Hs-578T = tested on: Hs-578T
A498 = tested on: A498
SW-620 = tested on: SW-620
IGROV-1 = tested on: IGROV-1
LOX IMVI = tested on: LOX IMVI
BT-549 = tested on: BT-549
CAKI-1 = tested on: CAKI-1
NCI-H460 = tested on: NCI-H460
MOLT-4 = tested on: MOLT-4
A549 = tested on: A549
T47D = tested on: T47D
NCI-H226 = tested on: NCI-H226
DU-145 = tested on: DU-145
MDA-MB-231 = tested on: MDA-MB-231
HOP-92 = tested on: HOP-92
SF-539 = tested on: SF-539
HOP-62 = tested on: HOP-62
SN12C = tested on: SN12C
Malme-3M = tested on: Malme-3M
UACC-62 = tested on: UACC-62
RXF 393 = tested on: RXF 393
SK-MEL-2 = tested on: SK-MEL-2
TK-10 = tested on: TK-10
MDA-N = tested on: MDA-N
SR = tested on: SR
EKVX = tested on: EKVX
SNB-75 = tested on: SNB-75
SK-MEL-5 = tested on: SK-MEL-5
OVCAR-3 = tested on: OVCAR-3
HCC 2998 = tested on: HCC 2998
SF-268 = tested on: SF-268
HL-60 = tested on: HL-60
MDA-MB-435 = tested on: MDA-MB-435
SF-295 = tested on: SF-295
SK-OV-3 = tested on: SK-OV-3
OVCAR-4 = tested on: OVCAR-4
NCI/ADR-RES = tested on: NCI/ADR-RES
HCT-116 = tested on: HCT-116
UO-31 = tested on: UO-31
M14 = tested on: M14
786-0 = tested on: 786-0
NCI-H522 = tested on: NCI-H522
PC-3 = tested on: PC-3

CC1OC(O[C@@H]2C=C3CC[C@@H]4[C@H](CC[C@]5(C)[C@@H](c6ccc(=O)oc6)CC[C@]45O)[C@@]3(C)CC2)C(O)C(O)C1O (some centres not stated)
GI50 (NCI-H23): 0.0475 µM (active) | GI50 (KM-20L2): 0.03 µM (active) | GI50 (OVCAR-8): 0.03 µM (active) | GI50 (KM12): 0.03 µM (active) | GI50 (COLO 205): 0.03 µM (active) | GI50 (SNB-19): 0.03 µM (active) | GI50 (HCT-15): 0.0475 µM | GI50 (K562): 0.03 µM (active) | GI50 (RPMI-8226): 0.03 µM (active) | GI50 (CCRF-CEM): 0.03 µM (active) | GI50 (HT-29): 0.03 µM (active) | GI50 (M19-MEL): 0.03 µM (active) | GI50 (U-251): 0.03 µM (active) | GI50 (SK-MEL-28): 0.03 µM (active) | GI50 (OVCAR-5): 0.03 µM (active) | GI50 (UACC-257): 0.03 µM (active) | GI50 (MCF7): 0.03 µM (active) | GI50 (ACHN): 0.00179 µM (active) | GI50 (Hs-578T): 0.00119 µM (active) | GI50 (A498): 0.03 µM (active) | GI50 (SW-620): 0.03 µM (active) | GI50 (IGROV-1): 0.03 µM (active) | GI50 (LOX IMVI): 0.03 µM (active)

CCSc1c2cc(OC)ccc2nc2ccc(OC)cc12
GI50 (NCI-H23): 9.44 µM (inactive) | GI50 (BT-549): 23.7 µM (inactive) | GI50 (CAKI-1): 9.27 µM (inactive) | GI50 (NCI-H460): 13.2 µM (inactive) | GI50 (MOLT-4): 3.22 µM (inactive) | GI50 (OVCAR-8): 16.4 µM (inactive) | GI50 (KM12): 11.2 µM (inactive) | GI50 (COLO 205): 7.26 µM (inactive) | GI50 (A549): 25.6 µM (inactive) | GI50 (T47D): 8.87 µM (inactive) | GI50 (NCI-H226): 11.9 µM (inactive) | GI50 (DU-145): 18.2 µM (inactive) | GI50 (SNB-19): 26.2 µM (inactive) | GI50 (MDA-MB-231): 8.57 µM (inactive) | GI50 (HCT-15): 8.34 µM | GI50 (HOP-92): > 60.8 µM (inactive) | GI50 (SF-539): 15.3 µM (inactive) | GI50 (HOP-62): 19.1 µM (inactive) | GI50 (SN12C): 14.3 µM (inactive) | GI50 (Malme-3M): 13.7 µM (inactive) | GI50 (K562): 5.74 µM (inactive) | GI50 (RPMI-8226): 4.24 µM (inactive) | GI50 (CCRF-CEM): 5.56 µM (inactive) | GI50 (UACC-62): 10.9 µM (inactive) | GI50 (RXF 393): 11.6 µM (inactive) | GI50 (SK-MEL-2): 18.8 µM (inactive) | GI50 (HT-29): 17.8 µM (inactive) | GI50 (TK-10): 9.64 µM (inactive) | GI50 (U-251): 12.5 µM (inactive) | GI50 (SK-MEL-28): 14.9 µM (inactive) | GI50 (MDA-N): 5.24 µM (inactive) | GI50 (SR): 2.76 µM (inactive) | GI50 (EKVX): 9.84 µM (inactive) | GI50 (OVCAR-5): 8.09 µM (inactive) | GI50 (SNB-75): 6.73 µM (inactive) | GI50 (SK-MEL-5): 6.65 µM (inactive) | GI50 (UACC-257): 9.98 µM (inactive) | GI50 (OVCAR-3): 16.9 µM (inactive) | GI50 (HCC 2998): 7.53 µM (inactive) | GI50 (SF-268): 10.9 µM (inactive) | GI50 (HL-60): 2.62 µM (inactive) | GI50 (MDA-MB-435): 5.13 µM (inactive) | GI50 (MCF7): 4.99 µM (inactive) | GI50 (ACHN): 18.6 µM (inactive) | GI50 (Hs-578T): > 100 µM (inactive) | GI50 (SF-295): 22.4 µM (inactive) | GI50 (SK-OV-3): 23.3 µM (inactive) | GI50 (OVCAR-4): 11.7 µM (inactive) | GI50 (A498): 9.4 µM (inactive) | GI50 (NCI/ADR-RES): 12.1 µM (inactive) | GI50 (HCT-116): 6.05 µM (inactive) | GI50 (SW-620): 17.7 µM (inactive) | GI50 (UO-31): 12.6 µM (inactive) | GI50 (M14): 11.9 µM (inactive) | GI50 (786-0): 16 µM (inactive) | GI50 (IGROV-1): 18.3 µM (inactive) | GI50 (NCI-H522): 9.33 µM (inactive) | GI50 (LOX IMVI): 13.2 µM (inactive) | GI50 (PC-3): 10.7 µM (inactive)
